From publication PMC5571359, “Screening the Medicines for Malaria Venture Pathogen Box across Multiple Pathogens Reclassifies Starting Points for Open-Source Drug Discovery” (Antimicrobial Agents and Chemotherapy, 2017)
Like-named read-outs stand apart in the source and are kept apart here.

Columns and labels:
[1] = system: P. falciparum ABS; details: cited from earlier work; for EC50: ChEMBL Data; for IC50: read-out: Pf 3D7 Pbox IC50
[2] = system: liver stage; details: cited from earlier work
[3] = system: HepG2; details: read-out: HepG2 PBox CC50 µM, cited from earlier work
[4] = system: T. cruzi C4 β-galactosidase reporter parasite in MRC 5SV2 host cells; details: ref Pbox supporting information; read-out: T. cruzi Pbox IC50; cited from earlier work
[5] = system: T. brucei brucei; details: ref Pbox supporting information; read-out: T.b. brucei Pbox IC50; cited from earlier work
[6] = system: T. brucei rhodesiense; details: ref Pbox supporting information; read-out: T .b. rohdensie Pbox IC50; cited from earlier work
[7] = system: L. infanium (macrophages); set-up: method as in Pbox supporting information; details: ref Pbox supporting information; cited from earlier work
[8] = system: T. b. brucei 427 bloodstream trypanosomes; test: T. b. brucei resazurin viability assay; type: cell-based, Trypanosoma brucei brucei; details: Trypanosoma brucei; read-out: T b.brucei Discovery Biology IC50
[9] = system: HEK293 cells; test: HEK293 resazurin cell cytotoxicity assay; details: Homo sapiens
[10] = TCMDC, read-out: TCMDC (ref 93) EX50
[11] = Pf 3D7, ref Pathogen Box supporting information
[12] = liver stage, ref Pathogen Box supporting information, read-out: LIVER STAGE Pbox IC50
[13] = HepG2 CC50, ref Pathogen Box supporting information
[14] = P. falciparum 3D7, ref PBox supporting information
[15] = ref Pbox supporting information
[16] = ref PBox supporting information
[17] = HEK293, read-out: HEK % Inhibition 20uM/IC50 Discovery Biology
[18] = NITD, read-out: NITD (ref 94) EC50
[19] = P. falciparum, read-out: TCMDC (ref 93) EX50

Compound	EC50 [1, 10]	IC50 [1, 11]	IC50 [2, 12]	CC50 [3, 13]	also measured
Cc1cc(C(=O)Nc2ccc(-c3ccccc3)cc2)no1 [MMV020152]	690 nM	820 nM	> 10000 nM	> 10 µM	
Cc1cccc(NC(=O)c2cc(S(=O)(=O)N(C)c3ccc(F)cc3)ccc2Cl)n1 [MMV676528]					IC50 [1, 14]: 1580 nM; IC50 [2, 15]: 6770 nM; CC50 [3, 16]: > 10 µM
CC(=O)Nc1ccc(-c2noc(CC3CCCN(Cc4cccc(F)c4C)C3)n2)cc1 (stereo not shown) [MMV689061]					IC50 [4]: 2800 nM; IC50 [5]: 32300 nM; IC50 [6]: 25100 nM; IC50 [7]: 1590 nM
COc1ccc(C2=NN(C3CCCCCC3)C(=O)C2(C)C)cc1OCCCCOc1ccc(-c2nn[nH]n2)cc1 [MMV690028]					IC50 [8]: 2250 nM; IC50 [5]: 790 nM; IC50 [9, 17]: > 20000 nM
CS(=O)(=O)c1ccccc1C(=O)N(Cc1ccccc1)c1ccccc1 [MMV688798]					IC50 [8]: 500 nM; IC50 [4]: 35400 nM; IC50 [5]: 560 nM; IC50 [6]: 400 nM; IC50 [7]: > 64000 nM; IC50 [9, 17]: > 20000 nM
O=C(Nc1ccc(N2CCNCC2)nc1)c1oc(-c2ccccc2)nc1C(F)(F)F [MMV024937]	980 nM	1220 nM	2550 nM	> 10 µM	
O=C(Nc1cccc(Cl)c1)c1cnc(N2CCN(c3ccncc3)CC2)c(Cl)c1 [MMV024406]	960 nM	830 nM	2350 nM	> 10 µM	
O=C1Nc2ccc(Br)cc2C12NCCc1c2[nH]c2ccccc12 (stereo not shown) [MMV006239]		510 nM	> 10000 nM	> 10 µM	EC50 [1, 18]: 200 nM
Cc1ccc(S(=O)(=O)n2cc(-c3ccnc(N)c3)c3cc(Br)cnc32)cc1 [MMV024114]	900 nM	630 nM	> 6000 nM	> 6 µM	inhibition at 20 µM [9, 17]: 60%
C[C@H](C(N)=O)N1CCCC[C@H]1c1ccc(OCc2cccc(F)c2)cc1 [MMV676269]					EC50 [1, 19]: 990 nM; IC50 [1, 14]: > 2000 nM; IC50 [2, 15]: 1360 nM; CC50 [3, 16]: > 10 µM
COc1cccc(-c2cc3c(Nc4cccnc4)nccc3[nH]2)c1 [MMV392832]					IC50 [1, 14]: 1280 nM; IC50 [2, 15]: > 10000 nM; CC50 [3, 16]: > 10 µM
O=C(NC1CC1)c1ccc(N2CCOc3ccc(Cl)cc32)s1 [MMV020537]	800 nM	1030 nM	3480 nM	> 10 µM	
CC1CC1C(=O)NC1CCN(CC2(c3ccccc3)CCCCC2)CC1 (stereo not shown) [MMV020120]	640 nM	580 nM	2250 nM	> 10 µM	
Nc1nccc2ccc(Oc3ccncc3)cc12 [MMV026313]					EC50 [1, 19]: 480 nM; IC50 [1, 14]: 230 nM; IC50 [2, 15]: > 10000 nM; CC50 [3, 16]: > 10 µM
CC(C)C(NC(=O)Cc1cccc2ccccc12)C(=O)Nc1cccc(C#N)c1 (stereo not shown) [MMV020591]	660 nM	960 nM	9150 nM	> 10 µM	
O=C(NC1CCN(c2ccnc3ccccc23)C1)c1cccc(C(F)(F)F)c1 (stereo not shown) [MMV023388]	900 nM	710 nM	6540 nM	> 10 µM	
Cc1nnc(NC(=O)c2cn(-c3ccccc3)nc2-c2ccccc2C)o1 [MMV020320]	570 nM	710 nM	170 nM	> 10 µM	
CCOc1ccc(-c2nc(NC(=O)CS(=O)(=O)c3ccccc3)sc2C)cc1 [MMV007638]	510 nM	660 nM	> 10000 nM	> 10 µM	EC50 [1, 18]: 530 nM
Cc1ccc(S(=O)(=O)N2CCN(C(=O)c3cc(-c4ccccc4)n[nH]3)CC2)cc1 [MMV019742]	600 nM	1040 nM	630 nM	> 10 µM	
CNC(=O)C1Cc2c([nH]c3cc(Cl)ccc23)C2(CCN(CCc3ccccc3)CC2)N1 (stereo not shown) [MMV031011]					EC50 [1, 19]: 930 nM; IC50 [1, 14]: 860 nM; IC50 [2, 15]: 4510 nM; CC50 [3, 16]: > 10 µM; IC50 ([9]; HEK293, read-out: HEK % Inhibition 20uM/IC50 Discovery Biology (IA)): > 20000 nM
